Data taken from patent US8192962B2, “Processes for detecting toxic substances” (Daikin Industries, Ltd., priority 2001, dated 2012).

System: Mitochondria-located protein genes
Experiment: DNA chip mRNA expression in yeast, mitochondria-located protein genes (Table 2)
Assay type: cell-based, Saccharomyces cerevisiae S288C
Conditions: cells incubated two hours with the chemical substance
Method in brief: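 Expression change after 2 h toxicant exposure (growth-inhibiting, sub-lethal) of log-phase S. cerevisiae S288C at 25° C. Oligo-dT-purified mRNA was labeled with Cy3-dUTP or Cy5-dUTP and hybridized >12 h at 65° C. to a genome-wide chip; ratio of scanned fluorescence to control.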

Q: Which results are given for `Oc1cc(Cl)c(Cl)cc1Cl` [(6), 2,4,5-trichlorophenol]?
A: The level of expressed mRNA in the presence of chemical substance/The level of expressed mRNA in the absence of chemical substance (yeast gene YAL039C): 0.8; The level of expressed mRNA in the presence of chemical substance/The level of expressed mRNA in the absence of chemical substance (yeast gene YBL022C): 1.2; The level of expressed mRNA in the presence of chemical substance/The level of expressed mRNA in the absence of chemical substance (yeast gene YBL030C): 1.1; The level of expressed mRNA in the presence of chemical substance/The level of expressed mRNA in the absence of chemical substance (yeast gene YBL038W): 0.7; The level of expressed mRNA in the presence of chemical substance/The level of expressed mRNA in the absence of chemical substance (yeast gene YBL099W): 0.9; The level of expressed mRNA in the presence of chemical substance/The level of expressed mRNA in the absence of chemical substance (yeast gene YBR003W): 1.2; The level of expressed mRNA in the presence of chemical substance/The level of expressed mRNA in the absence of chemical substance (yeast gene YBR044C): 1.0; The level of expressed mRNA in the presence of chemical substance/The level of expressed mRNA in the absence of chemical substance (yeast gene YBR091C): 0.7; The level of expressed mRNA in the presence of chemical substance/The level of expressed mRNA in the absence of chemical substance (yeast gene YBR122C): 1.1; The level of expressed mRNA in the presence of chemical substance/The level of expressed mRNA in the absence of chemical substance (yeast gene YBR185C): 1.2; The level of expressed mRNA in the presence of chemical substance/The level of expressed mRNA in the absence of chemical substance (yeast gene YBR221C): 1.7; The level of expressed mRNA in the presence of chemical substance/The level of expressed mRNA in the absence of chemical substance (yeast gene YBR251W): 2.0; The level of expressed mRNA in the presence of chemical substance/The level of expressed mRNA in the absence of chemical substance (yeast gene YBR282W): 1.4; The level of expressed mRNA in the presence of chemical substance/The level of expressed mRNA in the absence of chemical substance (yeast gene YCL057W): 1.8; The level of expressed mRNA in the presence of chemical substance/The level of expressed mRNA in the absence of chemical substance (yeast gene YCR046C): 0.8; The level of expressed mRNA in the presence of chemical substance/The level of expressed mRNA in the absence of chemical substance (yeast gene YCR083W): 2.4; The level of expressed mRNA in the presence of chemical substance/The level of expressed mRNA in the absence of chemical substance (yeast gene YDL067C): 0.9; The level of expressed mRNA in the presence of chemical substance/The level of expressed mRNA in the absence of chemical substance (yeast gene YDL181W): 1.2; The level of expressed mRNA in the presence of chemical substance/The level of expressed mRNA in the absence of chemical substance (yeast gene YDL198C): 0.8; The level of expressed mRNA in the presence of chemical substance/The level of expressed mRNA in the absence of chemical substance (yeast gene YDR079W): 1.7; The level of expressed mRNA in the presence of chemical substance/The level of expressed mRNA in the absence of chemical substance (yeast gene YDR178W): 2.1; The level of expressed mRNA in the presence of chemical substance/The level of expressed mRNA in the absence of chemical substance (yeast gene YDR231C): 2.2; The level of expressed mRNA in the presence of chemical substance/The level of expressed mRNA in the absence of chemical substance (yeast gene YDR258C): 2.4; The level of expressed mRNA in the presence of chemical substance/The level of expressed mRNA in the absence of chemical substance (yeast gene YDR298C): 1.2; The level of expressed mRNA in the presence of chemical substance/The level of expressed mRNA in the absence of chemical substance (yeast gene YDR347W): 1.2; The level of expressed mRNA in the presence of chemical substance/The level of expressed mRNA in the absence of chemical substance (yeast gene YDR377W): 1.3; The level of expressed mRNA in the presence of chemical substance/The level of expressed mRNA in the absence of chemical substance (yeast gene YDR529C): 0.8; The level of expressed mRNA in the presence of chemical substance/The level of expressed mRNA in the absence of chemical substance (yeast gene YEL024W): 1.1; The level of expressed mRNA in the presence of chemical substance/The level of expressed mRNA in the absence of chemical substance (yeast gene YEL039C): 1.5; The level of expressed mRNA in the presence of chemical substance/The level of expressed mRNA in the absence of chemical substance (yeast gene YER178W): 2.5; The level of expressed mRNA in the presence of chemical substance/The level of expressed mRNA in the absence of chemical substance (yeast gene YFL016C): 1.3; The level of expressed mRNA in the presence of chemical substance/The level of expressed mRNA in the absence of chemical substance (yeast gene YGL018C): 0.4; The level of expressed mRNA in the presence of chemical substance/The level of expressed mRNA in the absence of chemical substance (yeast gene YGL187C): 1.1; The level of expressed mRNA in the presence of chemical substance/The level of expressed mRNA in the absence of chemical substance (yeast gene YGL191W): 1.6; The level of expressed mRNA in the presence of chemical substance/The level of expressed mRNA in the absence of chemical substance (yeast gene YGR008C): 2.9; The level of expressed mRNA in the presence of chemical substance/The level of expressed mRNA in the absence of chemical substance (yeast gene YGR028W): 1.5; The level of expressed mRNA in the presence of chemical substance/The level of expressed mRNA in the absence of chemical substance (yeast gene YGR062C): 0.9; The level of expressed mRNA in the presence of chemical substance/The level of expressed mRNA in the absence of chemical substance (yeast gene YGR076C): 1.2; The level of expressed mRNA in the presence of chemical substance/The level of expressed mRNA in the absence of chemical substance (yeast gene YGR082W): 1.1; The level of expressed mRNA in the presence of chemical substance/The level of expressed mRNA in the absence of chemical substance (yeast gene YGR174C): 1.4; The level of expressed mRNA in the presence of chemical substance/The level of expressed mRNA in the absence of chemical substance (yeast gene YGR244C): 2.6; The level of expressed mRNA in the presence of chemical substance/The level of expressed mRNA in the absence of chemical substance (yeast gene YHR008C): 1.0; The level of expressed mRNA in the presence of chemical substance/The level of expressed mRNA in the absence of chemical substance (yeast gene YIL155C): 1.4; The level of expressed mRNA in the presence of chemical substance/The level of expressed mRNA in the absence of chemical substance (yeast gene YJL096W): 1.0; The level of expressed mRNA in the presence of chemical substance/The level of expressed mRNA in the absence of chemical substance (yeast gene YJL102W): 1.6; The level of expressed mRNA in the presence of chemical substance/The level of expressed mRNA in the absence of chemical substance (yeast gene YJL133W): 0.5; The level of expressed mRNA in the presence of chemical substance/The level of expressed mRNA in the absence of chemical substance (yeast gene YJL166W): 0.7; The level of expressed mRNA in the presence of chemical substance/The level of expressed mRNA in the absence of chemical substance (yeast gene YJL180C): 1.3; The level of expressed mRNA in the presence of chemical substance/The level of expressed mRNA in the absence of chemical substance (yeast gene YJR045C): 1.2; The level of expressed mRNA in the presence of chemical substance/The level of expressed mRNA in the absence of chemical substance (yeast gene YJR077C): 0.9
